These results are taken from patent US20260193293A1, “PEPTIDES CAPABLE OF INHIBITING PROTEIN-PROTEIN INTERACTIONS AT GABAB1A SUBUNIT AND USES THEREOF” (UNIVERSITY OF COPENHAGEN, priority 2022, published 2026).

Non-standard residues stand in square brackets, D forms with d. Residues, ends and D or L forms follow the SMILES beside them. NMeW = CN[C@@H](Cc1c[nH]c2ccccc12)C(=O)O; Cya = N[C@@H](CS(=O)(=O)O)C(=O)O; NMeF = CN[C@@H](Cc1ccccc1)C(=O)O; NMeI = CC[C@H](C)[C@H](NC)C(=O)O; NMeE = CN[C@@H](CCC(=O)O)C(=O)O; NMeA = CN[C@@H](C)C(=O)O; Sar = CNCC(=O)O

The target of the first assay is Sushi domains (SD1/2) protein. The experiment in a line: Fluorescence polarization (FP) competition assay with AJAP-1probe, calculated Ki. The assay is classed as binding. Particulars: Table 5, elongation and truncation scan of AJAP-1 binding epitope; read-out: Ki (nM) mean ± SEM. The method, boiled down:
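Ki values were derived from IC50s (sigmoidal fits, ≥ triplicate), with probe Kd obtained by saturation titration of SD1/2. Peptides displaced a 25 nM TAMRA-labelled probe; polarization read at 530/580 nm in 1% BSA-containing PBS, pH 7.4, room temperature.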
Usually Ki stands for a dissociation constant, usually derived from enzyme kinetics or from competition with a known ligand. For the compound `CC[C@H](C)[C@H](NC(=O)[C@H](Cc1ccccc1)NC(=O)[C@H](CCC(=O)O)NC(C)=O)C(=O)N[C@@H](C)C(=O)N[C@@H](Cc1c[nH]c2ccccc12)C(=O)NCC(=O)N1CCC[C@H]1C(=O)N[C@H](C(=O)NCC(=O)N[C@@H](CC(=O)O)C(=O)N[C@@H](CCC(=O)O)C(=O)N[C@@H](CC(=O)O)C(N)=O)[C@@H](C)O` [EFIAWGPTGDED] (Ac-EFIAWGPTGDED-NH2), the Ki was 112 ± 1 nM.

Still in this assay, the particulars now being: Table 8, Ala-, D-amino acids and N-methylation scans of AJAP-1WT; read-out: Ki (nM) mean ± SEM.
Regarding `CC[C@H](C)[C@H](NC(=O)[C@H](Cc1ccccc1)NC(=O)[C@H](CCC(=O)O)N(C)C(=O)[C@@H](NC(=O)[C@H](CCC(=O)O)NC(C)=O)[C@@H](C)O)C(=O)N[C@@H](C)C(=O)N[C@@H](Cc1c[nH]c2ccccc12)C(=O)NCC(=O)N1CCC[C@H]1C(=O)N[C@H](C(=O)NCC(=O)N[C@@H](CC(=O)O)C(=O)N[C@@H](CCC(=O)O)C(=O)N[C@@H](CC(=O)O)C(N)=O)[C@@H](C)O` [ET(N-Me-E)FIAWGPTGDED] (Ac-ET[NMeE]FIAWGPTGDED-NH2), the Ki was 159 ± 3 nM. Still for that read-out and setting: for `CC[C@H](C)[C@H](NC(=O)[C@H](Cc1ccccc1)NC(=O)[C@H](C)NC(=O)[C@@H](NC(=O)[C@H](CCC(=O)O)NC(C)=O)[C@@H](C)O)C(=O)N[C@@H](C)C(=O)N[C@@H](Cc1c[nH]c2ccccc12)C(=O)NCC(=O)N1CCC[C@H]1C(=O)N[C@H](C(=O)NCC(=O)N[C@@H](CC(=O)O)C(=O)N[C@@H](CCC(=O)O)C(=O)N[C@@H](CC(=O)O)C(N)=O)[C@@H](C)O` [ETAFIAWGPTGDED] (Ac-ETAFIAWGPTGDED-NH2) the value was 49 ± 2 nM; for `CC[C@H](C)[C@H](NC(=O)[C@H](Cc1ccccc1)N(C)C(=O)[C@H](CCC(=O)O)NC(=O)[C@@H](NC(=O)[C@H](CCC(=O)O)NC(C)=O)[C@@H](C)O)C(=O)N[C@@H](C)C(=O)N[C@@H](Cc1c[nH]c2ccccc12)C(=O)NCC(=O)N1CCC[C@H]1C(=O)N[C@H](C(=O)NCC(=O)N[C@@H](CC(=O)O)C(=O)N[C@@H](CCC(=O)O)C(=O)N[C@@H](CC(=O)O)C(N)=O)[C@@H](C)O` [ETE(N-Me-F)IAWGPTGDED] (Ac-ETE[NMeF]IAWGPTGDED-NH2), 252 ± 5 nM; for `CC[C@H](C)[C@H](NC(=O)[C@H](C)NC(=O)[C@H](CCC(=O)O)NC(=O)[C@@H](NC(=O)[C@H](CCC(=O)O)NC(C)=O)[C@@H](C)O)C(=O)N[C@@H](C)C(=O)N[C@@H](Cc1c[nH]c2ccccc12)C(=O)NCC(=O)N1CCC[C@H]1C(=O)N[C@H](C(=O)NCC(=O)N[C@@H](CC(=O)O)C(=O)N[C@@H](CCC(=O)O)C(=O)N[C@@H](CC(=O)O)C(N)=O)[C@@H](C)O` [ETEAIAWGPTGDED] (Ac-ETEAIAWGPTGDED-NH2), 688 ± 11 nM. In the case of `CC[C@H](C)[C@@H](C(=O)N[C@@H](C)C(=O)N[C@@H](Cc1c[nH]c2ccccc12)C(=O)NCC(=O)N1CCC[C@H]1C(=O)N[C@H](C(=O)NCC(=O)N[C@@H](CC(=O)O)C(=O)N[C@@H](CCC(=O)O)C(=O)N[C@@H](CC(=O)O)C(N)=O)[C@@H](C)O)N(C)C(=O)[C@H](Cc1ccccc1)NC(=O)[C@H](CCC(=O)O)NC(=O)[C@@H](NC(=O)[C@H](CCC(=O)O)NC(C)=O)[C@@H](C)O` [ETEF(N-Me-I)AWGPTGDED] (Ac-ETEF[NMeI]AWGPTGDED-NH2), the inhibition constant (Ki) was 33 ± 1 nM. Consider `CC[C@H](C)[C@H](NC(=O)[C@H](Cc1ccccc1)NC(=O)[C@H](CCC(=O)O)NC(=O)[C@@H](NC(=O)[C@H](CCC(=O)O)NC(C)=O)[C@@H](C)O)C(=O)N[C@@H](C)C(=O)N(C)[C@@H](Cc1c[nH]c2ccccc12)C(=O)NCC(=O)N1CCC[C@H]1C(=O)N[C@H](C(=O)NCC(=O)N[C@@H](CC(=O)O)C(=O)N[C@@H](CCC(=O)O)C(=O)N[C@@H](CC(=O)O)C(N)=O)[C@@H](C)O` [ETEFIA(N-Me-W)GPTGDED] (Ac-ETEFIA[NMeW]GPTGDED-NH2), for which the inhibition constant (Ki) was 46 ± 2 nM. Same read-out and setting: the result for `CC[C@H](C)[C@H](NC(=O)[C@H](Cc1ccccc1)NC(=O)[C@H](CCC(=O)O)NC(=O)[C@@H](NC(=O)[C@H](CCC(=O)O)NC(C)=O)[C@@H](C)O)C(=O)N[C@@H](C)C(=O)N[C@@H](Cc1c[nH]c2ccccc12)C(=O)NCC(=O)N[C@@H](C)C(=O)N[C@H](C(=O)NCC(=O)N[C@@H](CC(=O)O)C(=O)N[C@@H](CCC(=O)O)C(=O)N[C@@H](CC(=O)O)C(N)=O)[C@@H](C)O` [ETEFIAWGATGDED] (Ac-ETEFIAWGATGDED-NH2) reads 291 ± 6 nM. With `CC[C@H](C)[C@H](NC(=O)[C@H](Cc1ccccc1)NC(=O)[C@H](CCC(=O)O)NC(=O)[C@@H](NC(=O)[C@H](CCC(=O)O)NC(C)=O)[C@@H](C)O)C(=O)N[C@@H](C)C(=O)N[C@@H](Cc1c[nH]c2ccccc12)C(=O)NCC(=O)N1CCC[C@H]1C(=O)N[C@@H](C)C(=O)NCC(=O)N[C@@H](CC(=O)O)C(=O)N[C@@H](CCC(=O)O)C(=O)N[C@@H](CC(=O)O)C(N)=O` [ETEFIAWGPAGDED] (Ac-ETEFIAWGPAGDED-NH2), the inhibition constant (Ki) was 89 ± 2 nM.

The same assay, now with this note: Table 8, in μM; read-out: Ki (nM) mean ± SEM.
On to `CC(=O)N[C@@H](CCC(=O)O)C(=O)N[C@H](C(=O)N[C@@H](CCC(=O)O)C(=O)N[C@@H](Cc1ccccc1)C(=O)N[C@@H](C)C(=O)N[C@@H](C)C(=O)N[C@@H](Cc1c[nH]c2ccccc12)C(=O)NCC(=O)N1CCC[C@H]1C(=O)N[C@H](C(=O)NCC(=O)N[C@@H](CC(=O)O)C(=O)N[C@@H](CCC(=O)O)C(=O)N[C@@H](CC(=O)O)C(N)=O)[C@@H](C)O)[C@@H](C)O` [ETEFAAWGPTGDED] (Ac-ETEFAAWGPTGDED-NH2), for which the Ki is over 6250 nM. For `CC[C@H](C)[C@H](NC(=O)[C@H](Cc1ccccc1)NC(=O)[C@H](CCC(=O)O)NC(=O)[C@@H](NC(=O)[C@H](CCC(=O)O)NC(C)=O)[C@@H](C)O)C(=O)N(C)[C@@H](C)C(=O)N[C@@H](Cc1c[nH]c2ccccc12)C(=O)NCC(=O)N1CCC[C@H]1C(=O)N[C@H](C(=O)NCC(=O)N[C@@H](CC(=O)O)C(=O)N[C@@H](CCC(=O)O)C(=O)N[C@@H](CC(=O)O)C(N)=O)[C@@H](C)O` [ETEFI(N-Me-A)WGPTGDED] (Ac-ETEFI[NMeA]WGPTGDED-NH2), the inhibition constant Ki was over 6250 nM. Consider `CC[C@H](C)[C@H](NC(=O)[C@H](Cc1ccccc1)NC(=O)[C@H](CCC(=O)O)NC(=O)[C@@H](NC(=O)[C@H](CCC(=O)O)NC(C)=O)[C@@H](C)O)C(=O)N[C@@H](C)C(=O)N[C@@H](C)C(=O)NCC(=O)N1CCC[C@H]1C(=O)N[C@H](C(=O)NCC(=O)N[C@@H](CC(=O)O)C(=O)N[C@@H](CCC(=O)O)C(=O)N[C@@H](CC(=O)O)C(N)=O)[C@@H](C)O` [ETEFIAAGPTGDED] (Ac-ETEFIAAGPTGDED-NH2), for which the inhibitory constant (Ki) is over 6250 nM. `CC[C@H](C)[C@H](NC(=O)[C@H](Cc1ccccc1)NC(=O)[C@H](CCC(=O)O)NC(=O)[C@@H](NC(=O)[C@H](CCC(=O)O)NC(C)=O)[C@@H](C)O)C(=O)N[C@@H](C)C(=O)N[C@@H](Cc1c[nH]c2ccccc12)C(=O)N(C)CC(=O)N1CCC[C@H]1C(=O)N[C@H](C(=O)NCC(=O)N[C@@H](CC(=O)O)C(=O)N[C@@H](CCC(=O)O)C(=O)N[C@@H](CC(=O)O)C(N)=O)[C@@H](C)O` [ETEFIAW(N-Me-G)PTGDED] (Ac-ETEFIAW[Sar]PTGDED-NH2): the Ki was over 6250 nM.

Staying with this assay, now noted: Table 11, deep mutational scanning validation variants of AJAP-1WT; read-out: Ki (nM) mean ± SEM.
With `CC[C@H](C)[C@H](NC(=O)[C@H](Cc1ccccc1)NC(=O)[C@H](CCC(=O)O)NC(=O)[C@@H](NC(=O)[C@H](CCC(=O)O)NC(C)=O)[C@@H](C)CC)C(=O)N[C@@H](C)C(=O)N[C@@H](Cc1c[nH]c2ccccc12)C(=O)NCC(=O)N1CCC[C@H]1C(=O)N[C@H](C(=O)NCC(=O)N[C@@H](CC(=O)O)C(=O)N[C@@H](CCC(=O)O)C(=O)N[C@@H](CC(=O)O)C(N)=O)[C@@H](C)O` [EIEFIAWGPTGDED], the inhibition constant (Ki) is 22 ± 1 nM.

For the compound `CC[C@H](C)[C@H](NC(=O)[C@H](Cc1ccccc1)NC(=O)[C@H](CC(=O)O)NC(=O)[C@@H](NC(=O)[C@H](CCC(=O)O)NC(C)=O)[C@@H](C)O)C(=O)N[C@@H](C)C(=O)N[C@@H](Cc1c[nH]c2ccccc12)C(=O)NCC(=O)N1CCC[C@H]1C(=O)N[C@H](C(=O)NCC(=O)N[C@@H](CC(=O)O)C(=O)N[C@@H](CCC(=O)O)C(=O)N[C@@H](CC(=O)O)C(N)=O)[C@@H](C)O` [ETDFIAWGPTGDED] (Ac-ETDFIAWGPTGDED-NH2), the inhibition constant Ki is 26 ± 1 nM. As to `CC[C@H](C)[C@H](NC(=O)[C@H](Cc1ccccc1)NC(=O)[C@H](CCC(=O)O)NC(=O)[C@@H](NC(=O)[C@H](CCC(=O)O)NC(C)=O)[C@@H](C)O)C(=O)N[C@@H](C)C(=O)N[C@@H](Cc1c[nH]c2ccccc12)C(=O)NCC(=O)N1CCC[C@H]1C(=O)N[C@@H](Cc1ccccc1)C(=O)NCC(=O)N[C@@H](CC(=O)O)C(=O)N[C@@H](CCC(=O)O)C(=O)N[C@@H](CC(=O)O)C(N)=O` [ETEFIAWGPFGDED] (Ac-ETEFIAWGPFGDED-NH2), the Ki was 40 ± 1 nM. Consider `CC[C@H](C)[C@H](NC(=O)[C@H](Cc1ccccc1)NC(=O)[C@H](CCC(=O)O)NC(=O)[C@@H](NC(=O)[C@H](CCC(=O)O)NC(C)=O)[C@@H](C)O)C(=O)N[C@@H](C)C(=O)N[C@@H](Cc1c[nH]c2ccccc12)C(=O)NCC(=O)N1CCC[C@H]1C(=O)N[C@@H](Cc1c[nH]cn1)C(=O)NCC(=O)N[C@@H](CC(=O)O)C(=O)N[C@@H](CCC(=O)O)C(=O)N[C@@H](CC(=O)O)C(N)=O` [ETEFIAWGPHGDED] (Ac-ETEFIAWGPHGDED-NH2), for which the Ki was 38 ± 1 nM.

Still in this assay, the particulars now being: Table 16, ncAAs incorporated peptides; read-out: Ki (nM) mean ± SEM.
Consider `CC[C@H](C)[C@H](NC(=O)[C@H](Cc1ccccc1)NC(=O)[C@H](CCC(=O)O)NC(=O)[C@@H](NC(=O)[C@H](CCC(=O)O)NC(C)=O)[C@@H](C)O)C(=O)N[C@@H](CS(=O)(=O)O)C(=O)N[C@@H](Cc1c[nH]c2ccccc12)C(=O)NCC(=O)N1CCC[C@H]1C(=O)N[C@H](C(=O)NCC(=O)N[C@@H](CC(=O)O)C(=O)N[C@@H](CCC(=O)O)C(=O)N[C@@H](CC(=O)O)C(N)=O)[C@@H](C)O` [ETEFI(Cya)WGPTGDED, Ac-ETEFI(Cya)WGPTGDED-NH2] (Ac-ETEFI[Cya]WGPTGDED-NH2), for which the inhibition constant Ki was 12 ± 0.3 nM.

Staying with this assay, now noted: purified peptides; read-out: Ki.
For `CC[C@H](C)[C@H](NC(=O)[C@H](Cc1ccccc1)NC(=O)[C@H](CCC(=O)O)NC(=O)[C@@H](NC(=O)[C@H](CCC(=O)O)NC(C)=O)[C@@H](C)O)C(=O)N[C@@H](CS(=O)(=O)O)C(=O)N[C@@H](Cc1c[nH]c2ccccc12)C(=O)NCC(=O)N1CCC[C@H]1C(=O)N[C@H](C(=O)NCC(=O)N[C@@H](CC(=O)O)C(=O)N[C@@H](CCC(=O)O)C(=O)N[C@@H](CC(=O)O)C(N)=O)[C@@H](C)O` [ETEFI(Cya)WGPTGDED, Ac-ETEFI(Cya)WGPTGDED-NH2] (Ac-ETEFI[Cya]WGPTGDED-NH2), the Ki is 11.8 nM.
